{"source": "patent US5691155A", "about": "“Nucleotide sequences encoding the murine β3-adrenergic receptor and their applications” (priority 1991, dated 1997)", "key": {"human RA-β3 [1]": {"target": "T1, human RA-β3 (Homo sapiens, UniProt P13945)", "T1 construct": "expressed in transfected cells; host or cells: CHO (Chinese Hamster Ovary), CHO-Huβ3", "T1 sequence (P13945 1-402)": "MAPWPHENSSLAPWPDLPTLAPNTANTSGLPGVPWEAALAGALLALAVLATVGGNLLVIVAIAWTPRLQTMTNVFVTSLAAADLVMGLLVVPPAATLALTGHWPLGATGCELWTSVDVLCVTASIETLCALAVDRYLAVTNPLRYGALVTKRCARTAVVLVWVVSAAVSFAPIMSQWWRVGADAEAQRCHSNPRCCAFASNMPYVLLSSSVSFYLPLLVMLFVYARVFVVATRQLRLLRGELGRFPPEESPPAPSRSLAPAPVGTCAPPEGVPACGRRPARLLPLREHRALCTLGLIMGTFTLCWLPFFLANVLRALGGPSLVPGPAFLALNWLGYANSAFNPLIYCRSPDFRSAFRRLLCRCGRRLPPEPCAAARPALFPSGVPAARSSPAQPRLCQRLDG", "assay": "Inhibition of isoproterenol-induced cAMP accumulation in CHO-Huβ3 cells (antagonists)", "format": "cell-based"}, "murine RA-β3 [2]": {"target": "T2, murine RA-β3 (Mus musculus, UniProt P25962)", "T2 construct": "expressed in transfected cells", "T2 sequence (P25962 1-388)": "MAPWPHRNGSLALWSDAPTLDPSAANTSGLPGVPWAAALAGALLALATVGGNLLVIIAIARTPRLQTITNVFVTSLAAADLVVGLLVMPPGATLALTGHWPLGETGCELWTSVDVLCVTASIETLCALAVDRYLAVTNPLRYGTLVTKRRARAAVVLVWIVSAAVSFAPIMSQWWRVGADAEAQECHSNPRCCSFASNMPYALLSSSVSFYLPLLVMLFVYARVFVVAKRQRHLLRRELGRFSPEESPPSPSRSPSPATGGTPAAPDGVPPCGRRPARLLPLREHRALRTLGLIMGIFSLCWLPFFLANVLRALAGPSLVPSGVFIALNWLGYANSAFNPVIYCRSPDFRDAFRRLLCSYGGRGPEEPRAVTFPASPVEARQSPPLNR", "assay": "Inhibition of (-)-isoproterenol-induced cAMP accumulation in CHO-Muβ3 cells (antagonists)", "format": "cell-based", "settings": "for concentration required to inhibit isoproterenol-induced cAMP accumulation (in words): CHO-Muβ3, 5 nM (-)-isoproterenol; for inhibition of isoproterenol-induced accumulation of cAMP (in words): murine RA-β3"}, "human RA-β3 [3]": {"target": "T1, human RA-β3", "assay": "cAMP accumulation in CHO-Huβ3 cells (agonists)", "format": "cell-based", "settings": "for EC50: CHO-Huβ3, agonist concentration giving 50% of the maximum stimulation, read-out: Kact; for activation of receptor by β1 and β2 antagonists (in words): human RA-β3", "method": "In order to be able to directly compare the properties of the murine and human β3-AR receptors, it was decided to express the mouse β3 gene in the CHO (Chinese Hamster Ovary) cell line which has already been used to analyse the human β3-AR receptor (see French Patent Application No. 89 00918).\n(§1) a. Test for cAMP Accumulation\n(§2) preconfluent cells such as those described in Example 5 (5×10^5) are incubated at 37° C. for 20 minutes in 0.5 ml of HANKS buffer containing 20 mM HEPES (pH 7.4), 1 mM ascorbic acid, 1 mM isobutylmethylxanthine and various concentrations of agonist.\n(§3) After boiling for 5 min and centrifugation (4000 r.p.m., 10 min, 4° C.), the quantity of cAMP produced is determined using the Amersham cAMP kit.\n(§4) The Kact values correspond to the agonist concentration giving 50% of the maximum stimulation."}, "murine RA-β3 [4]": {"target": "T2, murine RA-β3", "assay": "cAMP accumulation in CHO-Muβ3 cells (agonists)", "format": "cell-based", "settings": "for maximum stimulation of cAMP accumulation: % of that for (-)-isoproterenol; for A.I. (% IPR), intrinsic activity: % of maximum effect of (-)-isoproterenol; for activation of receptor by β1 and β2 antagonists (in words): murine RA-β3; for agonist type (in words): murine RA-β3, CHO-Muβ3", "method": "as §1, §2, §3\nTo determine the pharmacological profile of murine RA-β3, the coding region of its gene was inserted into an expression vector like that described in Example 5.\nas §4"}, "RA-β3": {"system": "RA-β3", "settings": "cited from earlier work"}, "obese rat cells": {"system": "obese rat cells", "settings": "cited from earlier work"}, "murine RA-β3 [5]": {"target": "T2, murine RA-β3", "assay": "Binding of [^125 I]ICYP to saturation, intact CHO-Muβ3 cells", "settings": "saturation/Scatchard, mean±SEM, n=3, read-out: dissociation constant", "method": "b. Test for the Binding of ICYP\npreconfluent cells such as those described in Example 5 (10^5) are incubated for 1 hour at 37° C. in a HANKS buffer containing 20 mM HEPES (pH 7.4), 1 mM ascorbic acid, 2 μM desipramine, 0.05% bovine serum albumin and 70-7000 pM (-)-[^125 I]ICYP (2000 Ci/mmol, Amersham).\nThe incubations are stopped by dilution in cold PBS buffer and the bound ligand is separated from free [^125 I]ICYP by filtration (Whatman GF/C filters impregnated with 0.3% polyethyleneimine).\nThe filters are washed 3 times with cold PBS buffer and the radioactivity is measured."}, "[6]": {"settings": "CHO-Muβ3, agonist concentration giving 50% of the maximum stimulation, read-out: Kact"}}, "note": "Entries after “also recorded” stand apart in the source; their conditions may differ. Read-outs that look alike come from different tables or passages of the source.", "data": [{"smiles": "Cc1ccc(OCC(O)C(C)NC(C)C)c2c1CCC2", "note": "(stereo not shown) [ICI 118551]", "values": [{"measurement": "inhibition of isoproterenol-induced accumulation of cAMP (in words)", "setting": "human RA-β3 [1]", "result": "weak inhibitors"}, {"measurement": "Ki", "setting": "murine RA-β3 [2]", "result": "4970 ± 137", "unit": "nM"}, {"measurement": "concentration required to inhibit isoproterenol-induced cAMP accumulation (in words)", "setting": "murine RA-β3 [2]", "result": "micromolar concentrations are required; also recorded: micromolar amounts"}, {"measurement": "inhibition of isoproterenol-induced accumulation of cAMP (in words)", "setting": "murine RA-β3 [2]", "result": "weak inhibitors"}]}, {"smiles": "CC(C)(C)NCC(O)COc1cccc2[nH]c(=O)[nH]c12", "note": "(stereo not shown) [CGP 12177A]", "values": [{"measurement": "EC50", "setting": "human RA-β3 [3]", "result": "139 ± 44.3", "unit": "nM"}, {"measurement": "activation of receptor by β1 and β2 antagonists (in words)", "setting": "human RA-β3 [3]", "result": "can be activated"}, {"measurement": "maximum stimulation of cAMP accumulation", "setting": "murine RA-β3 [4]; CHO-Muβ3", "result": 77, "unit": "%"}, {"measurement": "A.I. (% IPR), intrinsic activity", "setting": "murine RA-β3 [4]; CHO-Muβ3", "result": "74.9 ± 7.9", "unit": "%"}, {"measurement": "activation of receptor by β1 and β2 antagonists (in words)", "setting": "murine RA-β3 [4]", "result": "can be activated"}, {"measurement": "agonist type (in words)", "setting": "murine RA-β3 [4]", "result": "behave like partial agonists"}, {"measurement": "lipolysis and adenylate cyclase activity (in words)", "setting": "RA-β3", "result": "stimulates lipolysis and adenylate cyclase activity"}]}, {"smiles": "C[C@H](Cc1ccc(OCC(=O)O)cc1)NC[C@H](O)c1cccc(Cl)c1", "note": "(relative stereo) [BRL 37344]", "values": [{"measurement": "EC50", "setting": "murine RA-β3 [4]", "result": "0.4 ± 0.1", "unit": "nM"}, {"measurement": "stimulation of cAMP accumulation (in words)", "setting": "murine RA-β3 [4]; CHO-Muβ3", "result": "potent agonist effect"}, {"measurement": "A.I. (% IPR), intrinsic activity", "setting": "murine RA-β3 [4]; CHO-Muβ3", "result": "107.4 ± 8.1", "unit": "%"}, {"measurement": "agonist potency in mice compared with human (in words)", "setting": "murine RA-β3 [4]; murine vs human RA-β3", "result": "increased potency"}, {"measurement": "stimulation of cAMP accumulation, of lipolysis and of thermogenesis (in words)", "setting": "obese rat cells", "result": "effectiveness in the stimulation of cAMP accumulation, of lipolysis and of thermogenesis"}]}, {"smiles": "CC(C)(C)NC[C@H](O)COc1cccc2[nH]c(C#N)c([125I])c12", "note": "[ICYP, [^125 I]iodocyanopindolol]", "values": [{"measurement": "Kd", "setting": "murine RA-β3 [5]", "result": "0.88 ± 0.088", "unit": "nM"}]}, {"smiles": "CC(C)NCC(O)COc1cccc2[nH]ccc12", "note": "(stereo not shown) [pindolol]", "values": [{"measurement": "activation of receptor by β1 and β2 antagonists (in words)", "setting": "human RA-β3 [3]", "result": "can be activated"}, {"measurement": "maximum stimulation of cAMP accumulation", "setting": "murine RA-β3 [4]; CHO-Muβ3", "result": 36, "unit": "%"}, {"measurement": "A.I. (% IPR), intrinsic activity", "setting": "murine RA-β3 [4]; CHO-Muβ3", "result": "35.1 ± 3.1", "unit": "%"}, {"measurement": "EC50", "setting": "murine RA-β3 [4]; [6]", "result": "999 ± 197", "unit": "nM"}, {"measurement": "activation of receptor by β1 and β2 antagonists (in words)", "setting": "murine RA-β3 [4]", "result": "can be activated"}, {"measurement": "agonist type (in words)", "setting": "murine RA-β3 [4]", "result": "behave like partial agonists"}]}, {"smiles": "C=CCOc1ccccc1OCC(O)CNC(C)C", "note": "(stereo not shown) [oxprenolol]", "values": [{"measurement": "EC50", "setting": "human RA-β3 [3]", "result": "76.6 ± 12.6", "unit": "nM"}, {"measurement": "activation of receptor by β1 and β2 antagonists (in words)", "setting": "human RA-β3 [3]", "result": "can be activated"}, {"measurement": "maximum stimulation of cAMP accumulation", "setting": "murine RA-β3 [4]; CHO-Muβ3", "result": 45, "unit": "%"}, {"measurement": "A.I. (% IPR), intrinsic activity", "setting": "murine RA-β3 [4]; CHO-Muβ3", "result": "43.8 ± 6.1", "unit": "%"}, {"measurement": "EC50", "setting": "murine RA-β3 [4]; [6]", "result": "535 ± 79.3", "unit": "nM"}, {"measurement": "activation of receptor by β1 and β2 antagonists (in words)", "setting": "murine RA-β3 [4]", "result": "can be activated"}, {"measurement": "agonist type (in words)", "setting": "murine RA-β3 [4]", "result": "behave like partial agonists"}]}, {"smiles": "Cn1cc(C(F)(F)F)nc1-c1ccc(OCC(O)CNCCOc2ccc(O)c(C(N)=O)c2)cc1", "note": "(stereo not shown) [CGP 20712A]", "values": [{"measurement": "inhibition of isoproterenol-induced accumulation of cAMP (in words)", "setting": "human RA-β3 [1]", "result": "weak inhibitors"}, {"measurement": "Ki", "setting": "murine RA-β3 [2]", "result": "6420 ± 584", "unit": "nM"}, {"measurement": "concentration required to inhibit isoproterenol-induced cAMP accumulation (in words)", "setting": "murine RA-β3 [2]", "result": "micromolar concentrations are required; also recorded: micromolar amounts"}, {"measurement": "inhibition of isoproterenol-induced accumulation of cAMP (in words)", "setting": "murine RA-β3 [2]", "result": "weak inhibitors"}]}, {"smiles": "CNCC(O)c1ccc(O)c(O)c1", "note": "(single isomer, unassigned; (-)) [(-)-adrenalin]", "values": [{"measurement": "EC50", "setting": "human RA-β3 [3]", "result": "49.2 ± 5.3", "unit": "nM"}, {"measurement": "stimulation of cAMP accumulation (in words)", "setting": "murine RA-β3 [4]; CHO-Muβ3", "result": "accumulation of cAMP is stimulated"}, {"measurement": "A.I. (% IPR), intrinsic activity", "setting": "murine RA-β3 [4]; CHO-Muβ3", "result": "90.6 ± 2.9", "unit": "%"}, {"measurement": "EC50", "setting": "murine RA-β3 [4]; [6]", "result": "23 ± 0.3", "unit": "nM"}]}, {"smiles": "NC[C@H](O)c1ccc(O)c(O)c1", "note": "[(-)-noradrenaline]", "values": [{"measurement": "EC50", "setting": "murine RA-β3 [4]", "result": "12.9 ± 4.2", "unit": "nM"}, {"measurement": "stimulation of cAMP accumulation (in words)", "setting": "murine RA-β3 [4]; CHO-Muβ3", "result": "accumulation of cAMP is stimulated"}, {"measurement": "Emax", "setting": "murine RA-β3 [4]; read-out: A.I. (% IPR), intrinsic activity", "result": "106 ± 5.6", "unit": "%"}]}, {"smiles": "CC(C)NCC(O)c1ccc(O)c(O)c1", "note": "(single isomer, unassigned; (-)) [(-)-isoproterenol]", "values": [{"measurement": "maximum concentration of cAMP induced by isoproterenol", "setting": "murine RA-β3 [4]", "result": 500, "unit": "pmol per million cells"}]}, {"smiles": "CC(C)NCC(O)COc1cccc2ccccc12", "note": "(stereo not shown) [Propranolol]", "values": [{"measurement": "inhibition of isoproterenol-induced accumulation of cAMP (in words)", "setting": "human RA-β3 [1]", "result": "weak inhibitors"}]}]}
